Results on seven compounds are retold here after US8022038B2, “Composition for acceleration of type I collagen production” (Fancl Corporation, priority 2005, dated 2011).

For the test, the system named is three-dimensional human skin model (type I collagen production). Nature of the test: Type I collagen production in three-dimensional human skin model (TESTSKIN LSE-high), Western blotting with imaging analysis. In kind it is cell-based. The method, then:
Three-dimensional human skin models are widely used in safety evaluation and effectiveness evaluation as a simulated model of human skin. In this test, TESTSKIN (LSE-high) (Toyobo Co., Ltd.) was used as a three-dimensional human skin model.
A culture medium was added to the outer well of TESTSKIN (LSE-high) and cultured for 24 hours. Thereafter, the culture solution was changed and each agent was added by 100 μl onto the tissues in the assay ring, after which the medium was cultured for 36 hours. Thereafter, the tissues were collected and a tissue extraction solution (50 mM Tris-HCl (pH 7.5), 0.5% (Octylphenoxy) polyethoxyethanol (Sigma-Aldrich Corp.)) was added, and then the mixture was homogenized using a homogenizer made of fluorocarbon resin. The homogenized mixture was centrifuged for 30 minutes at 10,000×G to remove tissue fragments, and then dialyzed overnight in distilled water at 4° C. Thereafter, the dialyzed mixture was freeze-dried to remove water. A tissue extraction solution was added to obtain a x20 concentrate, and this concentrate was used in Western blotting as a three-dimensional skin model extract sample.
Using a three-dimensional human skin model extract sample, 10 μg of protein was applied per lane, after which the sample was separated via SDS-PAGE and the result was transferred onto nitrocellulose membranes. The transferred nitrocellulose membranes were soaked in a blocking solution (solution prepared by dissolving skim milk in a PBS containing 0.1% polyoxyethylene (20) sorbitan monolaurate to achieve a concentration of 5%) and blocked for one whole day at 4° C. The blocked membranes were washed with a washing solution (PBS containing 0.1% polyoxyethylene (20) sorbitan monolaurate) and then soaked in a primary antibody (polyclonal antibody of type I collagen (Rockland Inc.) adjusted to 500 ng/ml using a washing solution) to cause reaction for 1 hour at room temperature. The reacted membranes were washed and then soaked in a secondary antibody (horseradish peroxidase labeled anti-rabbit immunoglobulin G adjusted to 250 ng/ml using a washing solution) to cause reaction for 1 hour at room temperature. The reacted membranes were washed and then detection was performed using an ECL plus Western blotting detection reagent (Amersham Biosciences Inc.). The detected band was also scanned into an image scanner (Amersham Biosciences Inc.) and analyzed using image master software (Amersham Biosciences Inc.) for conversion to numerical values.

The mark [1] stands for this setting: 10 μM, 36 h treatment, Example 1, FIGS. 1 and 2.
[2] abbreviates: 10 μM alone, Example 3, FIGS. 9 and 10.
Where [3] appears, read: 10 μM, Example 3, FIGS. 7 and 8.
[4] abbreviates: 30 μM, Example 3, FIGS. 7 and 8.

Non-standard residues stand in square brackets, D forms with d. No end group written: not given here. Hyp = O=C(O)[C@@H]1C[C@@H](O)CN1

Take `COc1cc(C2Oc3cc([C@H]4Oc5cc(O)cc(O)c5C(=O)[C@@H]4O)ccc3OC2CO)ccc1O` (stereo partly drawn) [silybin]: the “type I collagen production compared to the level in the untreated control” value was 1.95 times (5 μM alone, Example 3, FIGS. 9 and 10); 1.85 times (5 μM used alone, Example 2, FIGS. 5 and 6); 3.2 times under setting [1].
With `COc1cc([C@@H]2Oc3c(O)cc([C@H]4Oc5cc(O)cc(O)c5C(=O)[C@@H]4O)cc3[C@H]2CO)ccc1O` [silychristin], the “type I collagen production compared to the level in the untreated control” value under setting [1] is 0.95 times.
The same measure, in the same setting: to `COc1cc([C@@H]2[C@H]3CO[C@@]4(O)C(=O)[C@@H]2C=C([C@H]2Oc5cc(O)cc(O)c5C(=O)[C@@H]2O)[C@@H]34)ccc1O` [silydianin] belongs 0.9 times.
For the compound “Gly-Glu-Pro-Arg (GEPR) [peptide derived from an immunoglobulin G decomposition product, synthesized]”, the “type I collagen production compared to the level in the untreated control” value runs as follows: under setting [2], 2.10 times; under setting [3], 2.15 times; under setting [4], 3.55 times.
For Gly-His-Lys the same measures were 1.75 times, 1.75 times and 2.70 times.
For the compound Gly-Pro-[Hyp], the “type I collagen production compared to the level in the untreated control” value runs as follows: (5 μM, Example 2, FIGS. 3 and 4) 1.05 times; (10 μM, Example 2, FIGS. 3 and 4) 1.15 times; (30 μM used alone, Example 2, FIGS. 5 and 6) 1.25 times; (30 μM, Example 2, FIGS. 3 and 4) 1.25 times.
Consider “Lys-Thr-Thr-Lys-Ser (KTTKS) [pentapeptide derived from an α1 collagen decomposition product, synthesized]”, for which the “type I collagen production compared to the level in the untreated control” value is, setting by setting: under setting [2], 1.80 times; under setting [3], 1.80 times; under setting [4], 2.45 times.
